What follows are compounds tested against PD-1/PD-L1 (Homo sapiens (Human), UniProt Q9NZQ7) (assay: PD-1/PD-L1 Homogeneous Time-Resolved Fluorescence (HTRF) Binding Assay). Details: recombinant human PD-1 (3 nM) and PD-L1 (10 nM), 25° C., PBS pH 7.4.
In short: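 Fc-tagged human PD-1 (25-167, 3 nM) and His-tagged PD-L1 (19-238, 10 nM) preincubated with inhibitor 40 min in PBS pH 7.4, 0.05% Tween-20, 0.1% BSA, 1% DMSO, 25 °C. Binding detected by HTRF (Eu anti-IgG/APC anti-His, 665/620 nm) after 60 min; IC50 from percent control activity.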

Sequence of PD-1/PD-L1 (Q9NZQ7 19-238): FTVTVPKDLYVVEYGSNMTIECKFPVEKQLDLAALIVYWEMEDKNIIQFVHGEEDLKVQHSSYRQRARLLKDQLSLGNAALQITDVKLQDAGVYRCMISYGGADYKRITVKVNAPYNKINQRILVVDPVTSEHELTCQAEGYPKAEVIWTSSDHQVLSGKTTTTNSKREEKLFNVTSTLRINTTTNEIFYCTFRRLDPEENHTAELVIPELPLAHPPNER

Row | SMILES | IC50 [nM]
1 | Cc1c(-c2nc3c(o2)CN(C(=O)CN(C)CCO)C3)cccc1-c1cccc(-c2nc3cc(CN4CC[C@@](C)(C(=O)O)C4)cc(C#N)c3o2)c1C [Example 252, (R)-1-((7-cyano-2-(3′-(5-(N-(2-hydroxyethyl)-N-methylglycyl)-5,6-dihydro-4H-pyrrolo[3,4-d]oxazol-2 yl)-2,2'-dimethyl-[1,1′-biphenyl]-3-yl)benzo[d]oxazol-5-yl)methyl)-3-methylpyrrolidine-3-carboxylic acid] | ≤ 10
2 | Cc1c(-c2nc3c(o2)CN(C(=O)CN2CC[C@@H](C(=O)O)C2)C3)cccc1-c1cccc(-c2nc3cc(CN4CC[C@@H](O)C4)cc(C#N)c3o2)c1C [Example 132, (R)-1-(2-(2-(3′-(7-cyano-5-(((R)-3-hydroxypyrrolidin-1-yl)methyl)benzo[d]oxazol-2-yl)-2,2′-dimethyl-[1,1′-biphenyl]-3-yl)-4,6-dihydro-5H-pyrrolo[3,4-d]oxazol-5-yl)-2-oxoethyl)pyrrolidine-3-carboxylic acid] | ≤ 10
3 | Cc1c(-c2nc3cc(CN4CC[C@@H](O)C4)cc(C#N)c3o2)cccc1-c1cccc(NC(=O)c2nc3c(n2C)CCN(CC24CC(C(=O)O)(C2)C4)C3)c1Cl [Example 262, (R)-3-((2-(2-chloro-3′-(7-cyano-5-((3-hydroxypyrrolidin-1-yl)methyl)benzo[d]oxazol-2-yl)-2′-methylbiphenyl-3-yl-carbamoyl)-1-methyl-6,7-dihydro-1H-imidazo[4,5-c]pyridin-5(4H)-yl)methyl)bicyclo[1.1.1]-pentane-1-carboxylic acid] | ≤ 10
4 | Cc1c(Nc2nccc3cc(CNC[C@@H](C)O)cnc23)cccc1-c1cccc(-c2nc3cc(CN4CCC(C(=O)O)CC4)cc(C#N)c3o2)c1C [Example 203, (R)-1-((7-cyano-2-(3′-(3-((2-hydroxypropylamino)methyl)-1,7-naphthyridin-8-ylamino)-2,2′-dimethylbiphenyl-3-yl)benzo[d]oxazol-5-yl)methyl)piperidine-4-carboxylic acid] | ≤ 10
5 | Cc1c(-c2nc3cc(CN4CC[C@H](C(=O)O)C4)cc(C#N)c3o2)cccc1-c1cccc(Nc2nccc3cc(CN4CC[C@H](O)C4)cnc23)c1Cl [Example 33, (S)-1-((2-(2′-chloro-3′-(3-(((S)-3-hydroxypyrrolidin-1-yl)methyl)-1,7-naphthyridin-8-ylamino)-2-methylbiphenyl-3-yl)-7-cyanobenzo[d]oxazol-5-yl)methyl)pyrrolidine-3-carboxylic acid] | ≤ 10
6 | Cc1c(-c2nc3cc(CN4CC[C@H](C(=O)O)C4)cc(C#N)c3o2)cccc1-c1cccc(NC(=O)c2nc3c(n2C)CCN(C)C3)c1F [Example 51, (S)-1-((7-cyano-2-(3′-(1,5-dimethyl-4,5,6,7-tetrahydro-1H-imidazo[4,5-c]pyridine-2-carboxamido)-2′-fluoro-2-methylbiphenyl-3-yl)benzo[d]oxazol-5-yl)methyl)pyrrolidine-3-carboxylic acid] | ≤ 10
7 | Cc1c(-c2nc3cc(CN4CC[C@@](C)(C(=O)O)C4)cc(C#N)c3o2)cccc1-c1cccc(-c2nc3c(s2)CN(C(=O)CN(C)C)C3)c1C [Example 109, (R)-1-((7-cyano-2-(3′-(5-(2-(dimethylamino)acetyl)-5,6-dihydro-4H-pyrrolo[3,4-d]thiazol-2-yl)-2,2′-dimethylbiphenyl-3-yl)benzo[d]oxazol-5-yl)methyl)-3-methylpyrrolidine-3-carboxylic acid] | ≤ 10
8 | Cc1c(Nc2nccc3cc(C4CN(CCO)C4)cnc23)cccc1-c1cccc(-c2nc3cc(CN4CC[C@@H](C(=O)O)C4)cc(C#N)c3o2)c1C [Example 96, (R)-1-((7-cyano-2-(3′-(3-(1-(2-hydroxyethyl)azetidin-3-yl)-1,7-naphthyridin-8-ylamino)-2,2′-dimethylbiphenyl-3-yl)benzo[d]oxazol-5-yl)methyl)pyrrolidine-3-carboxylic acid] | ≤ 10
9 | Cc1c(-c2nc3cc(CN4CC[C@@H](C(=O)O)C4)cc(C#N)c3o2)cccc1-c1cccc(-n2cc3c(n2)CN(C)C3)c1Cl [Example 55, (R)-1-((2-(2′-chloro-2-methyl-3′-(5-methyl-5,6-dihydropyrrolo[3,4-c]pyrazol-2(4H)-yl)biphenyl-3-yl)-7-cyanobenzo[d]oxazol-5-yl)methyl)pyrrolidine-3-carboxylic acid] | ≤ 10
10 | Cc1c(-c2nc3cc(CN4CC[C@@H](C(=O)O)C4)cc(Cl)c3o2)cccc1-c1cccc(Nc2nccc3cc(CN4CC[C@H](O)C4)cnc23)c1Cl [Example 29, (R)-1-((7-chloro-2-(2′-chloro-3′-(3-(((S)-3-hydroxypyrrolidin-1-yl)methyl)-1,7-naphthyridin-8-ylamino)-2-methylbiphenyl-3-yl)benzo[d]oxazol-5-yl)methyl)pyrrolidine-3-carboxylic acid] | ≤ 10
11 | Cc1c(-c2nc3c(o2)CN(C(=O)CN2CC[C@H](O)C2)C3)cccc1-c1cccc(-c2nc3cc(CN4CC[C@@H](C(=O)O)C4)cc(C#N)c3o2)c1C [Example 128, (R)-1-((7-cyano-2-(3′-(5-(2-((S)-3-hydroxypyrrolidin-1-yl)acetyl)-5,6-dihydro-4H-pyrrolo[3,4-d]oxazol-2-yl)-2,2′-dimethyl-[1,1′-biphenyl]-3-yl)benzo[d]oxazol-5-yl)methyl)pyrrolidine-3-carboxylic acid] | ≤ 10
12 | Cc1c(-c2nc3cc(CN4CC[C@H](C(=O)O)C4)cc(C#N)c3o2)cccc1-c1cccc(NC(=O)c2nc3c(n2C)CCN(CCO)C3)c1Cl [Example 93, (S)-1-((2-(2′-chloro-3′-(5-(2-hydroxyethyl)-1-methyl-4,5,6,7-tetrahydro-1H-imidazo[4,5-c]pyridine-2-carboxamido)-2-methylbiphenyl-3-yl)-7-cyanobenzo[d]oxazol-5-yl)methyl)pyrrolidine-3-carboxylic acid] | ≤ 10
13 | Cc1c(-c2nc3cc(CN4CC[C@@](C)(C(=O)O)C4)cc(C#N)c3o2)cccc1-c1cccc(NC(=O)c2nc3c(n2C)CC(C)N(C)C3)c1Cl (stereo partly drawn) [Example 161, (3R)-1-((2-(2′-chloro-2-methyl-3′-(1,5,6-trimethyl-4,5,6,7-tetrahydro-1H-imidazo[4,5-c]pyridine-2-carboxamido)biphenyl-3-yl)-7-cyanobenzo[d]oxazol-5-yl)methyl)-3-methylpyrrolidine-3-carboxylic acid] | ≤ 10
14 | Cc1c(-c2nc3cc(CN4CCC(C(=O)O)CC4)cc(C#N)c3o2)cccc1-c1cccc(NC(=O)c2nc3c(n2C)CC(C)N(C)C3)c1Cl (stereo not drawn) [Example 162, 1-((2-(2′-chloro-2-methyl-3′-(1,5,6-trimethyl-4,5,6,7-tetrahydro-1H-imidazo[4,5-c]pyridine-2-carboxamido)biphenyl-3-yl)-7-cyanobenzo[d]oxazol-5-yl)methyl)piperidine-4-carboxylic acid] | ≤ 10
15 | Cc1c(Nc2nccc3cc(CN[C@H](C)CO)cnc23)cccc1-c1cccc(-c2nc3cc(CN4CC[C@@](C)(C(=O)O)C4)cc(C#N)c3o2)c1C [Example 196, (R)-1-((7-cyano-2-(3′-(3-(((R)-1-hydroxypropan-2-ylamino)methyl)-1,7-naphthyridin-8-ylamino)-2,2′-dimethylbiphenyl-3-yl)benzo[d]oxazol-5-yl)methyl)-3-methylpyrrolidine-3-carboxylic acid] | ≤ 10
16 | Cc1c(Nc2nccc3c(CN4CC[C@H](O)C4)ccnc23)cccc1-c1cccc(-c2nc3cc(CN4CC[C@@H](C(=O)O)C4)cc(C#N)c3o2)c1C [Example 145, (R)-1-((7-cyano-2-(3′-((4-(((S)-3-hydroxypyrrolidin-1-yl)methyl)-1,7-naphthyridin-8-yl)amino)-2,2′-dimethyl-[1,1′-biphenyl]-3-yl)benzo[d]oxazol-5-yl)methyl)pyrrolidine-3-carboxylic acid] | ≤ 10
17 | Cc1c(-c2nc3c(o2)CN(C(=O)CN2CCC2)C3)cccc1-c1cccc(-c2nc3cc(CN4CC[C@@H](C(=O)O)C4)cc(C#N)c3o2)c1C [Example 130, (R)-1-((2-(3′-(5-(2-(azetidin-1-yl)acetyl)-5,6-dihydro-4H-pyrrolo[3,4-d]oxazol-2-yl)-2,2′-dimethyl-[1,1′-biphenyl]-3-yl)-7-cyanobenzo[d]oxazol-5-yl)methyl)pyrrolidine-3-carboxylic acid] | ≤ 10
18 | Cc1c(NC(=O)c2nc3c(n2C)CCN(C)C3)cccc1-c1cccc(-c2nc3cc(CN4CC[C@@](C)(C(=O)O)C4)cc(C#N)c3o2)c1C [Example 260, (R)-1-((7-cyano-2-(3′-(1,5-dimethyl-4,5,6,7-tetrahydro-1H-imidazo[4,5-c]pyridine-2-carboxamido)-2,2′-dimethylbiphenyl-3-yl)benzo[d]oxazol-5-yl)methyl)-3-methylpyrrolidine-3-carboxylic acid] | ≤ 10
19 | Cc1c(-c2nc3cc(CN4CC[C@H](C(=O)O)C4)cc(C#N)c3o2)cccc1-c1cccc(NC(=O)c2nc3c(n2C)CCNC3)c1Cl [Example 92, (S)-1-((2-(2′-chloro-2-methyl-3′-(1-methyl-4,5,6,7-tetrahydro-1H-imidazo[4,5-c]pyridine-2-carboxamido)biphenyl-3-yl)-7-cyanobenzo[d]oxazol-5-yl)methyl)pyrrolidine-3-carboxylic acid] | ≤ 10
20 | CNCc1cnc2c(Nc3cccc(-c4cccc(-c5nc6cc(CN7CC[C@@](C)(C(=O)O)C7)cc(C#N)c6o5)c4C)c3C)nccc2c1 [Example 197, (R)-1-((7-cyano-2-(2,2′-dimethyl-3′-(3-((methylamino)methyl)-1,7-naphthyridin-8-ylamino)biphenyl-3-yl)benzo[d]oxazol-5-yl)methyl)-3-methylpyrrolidine-3-carboxylic acid] | ≤ 10
21 | Cc1c(Nc2nccc3cc(CN4CC[C@@](C)(O)C4)cnc23)cccc1-c1cccc(-c2nc3cc(CN4CC[C@@H](C(=O)O)C4)cc(C#N)c3o2)c1C [Example 137, (R)-1-((7-cyano-2-(3′-(3-(((R)-3-hydroxy-3-methylpyrrolidin-1-yl)methyl)-1,7-naphthyridin-8-ylamino)-2,2′-dimethylbiphenyl-3-yl)benzo[d]oxazol-5-yl)methyl)pyrrolidine-3-carboxylic acid] | ≤ 10

From patent US10308644B2, “Heterocyclic compounds as immunomodulators” (Incyte Corporation, priority 2016, dated 2019)
